Measured values reported in patent publication US9370554B2, “Method for treating breast cancer with prolactin receptor agonists” (Orbis Health Solutions LLC, priority 2010, dated 2016).

B1: human prolactin (protein, UniProt P01236 29-227, looked up)
Prolactin: LPICPGGAARCQVTLRDLFDRAVVLSHYIHNLSSEMFSEFDKRYTHGRGFITKAINSCHTSSLATPEDKEQAQQMNQKDFLSLIVSILRSWNEPLYHLVTEVRGMQEAPEAILSKAVEIEEQTKRLLEGMELIVSQVHPETKENEIYPVWSGLPSLQMADEESRLSAYYNLLHCLRRDSHKIDNYLKLLKCRIIHNNNC

Legend:
[1] = test system: MCF-7 human breast cancer cells; test: Tumorsphere formation assay, MCF-7 (Example 1); format: cell-based; conditions: 11 days of treatment, hPRL 0.5 μg/ml, Dox 25 ng/ml, tumorspheres greater than 100 μm, FIG. 1
Description: Tumor sphere formation assay and aldehyde dehydrogenase (ALDH) activity measured by flow cytometry were used to measure the functional response of the CSCs after 11 days of co-treatment with human prolactin (hPRL) and doxorubicin (Dox). MCF-7 and MMTV-neu cells were cultured by standard methods known in the art. Briefly, unsorted MCF-7 cells were plated in ultra-low attachment plate (Corning Inc, Corning, N.Y.) at a density of 5000 cells/ml in serum-free Dulbecco's Modified Eagle Medium—F12 (DMEM-F12) supplemented with 0.4% bovine serum albumin (BSA), 10 ng/mL of basic fibroblast growth factor (bFGF), 20 ng/ml of epidermal growth factor (EGF), 5 μg/ml of insulin (all from Sigma-Aldrich Co., St. Louis, Mo.). Tumorspheres were allowed to form in 37° C. with 5% CO2 for 10 days. Culture medium were replaced two times in the course of treatment. Similar culturing method was applied to MMTV-neu cells in the exception of MMTV-neu cells were plated at a density of 200,000 cells/ml. Cells were treated with 0.5 μg/ml of hPRL, 25 ng/ml of doxorubicin or a combination of 0.5 μg/ml hRPL and 25 ng/ml doxorubicin. After 11 days of treatment, the cells were analyzed for tumorsphere formation and ALDH activity levels. Tumorsphere formation was determined by spheres formed in the culture medium. Spheres number were counted manually under four random fields of the 24-well at 40× magnification.

[2] = test system: MCF-7 human breast cancer cells; test: ALDH activity by flow cytometry (ALDEFLUOR), MCF-7 tumorspheres (Example 1); format: cell-based; conditions: 11 days, hPRL 0.5 μg/ml, Dox 25 ng/ml, FIG. 2
Description: (§1) MCF-7 human breast cancer cells and primary mouse breast cancer cells isolated from MMTV-neu transgenic mice were used in this study. Tumor sphere formation assay and aldehyde dehydrogenase (ALDH) activity measured by flow cytometry were used to measure the functional response of the CSCs after 11 days of co-treatment with human prolactin (hPRL) and doxorubicin (Dox).
(§2) Cells were treated with 0.5 μg/ml of hPRL, 25 ng/ml of doxorubicin or a combination of 0.5 μg/ml hRPL and 25 ng/ml doxorubicin. After 11 days of treatment, the cells were analyzed for tumorsphere formation and ALDH activity levels.
Accordingly, to determine the number of CSCs in a tumor sample, ALDH activity levels were determined by the ALDEFLUOR kit (StemCell Technologies, Vancouver, BC, Canada). Briefly, tumorspheres were dissociated by trypsin (Invitrogen, Carlsbad, Calif.) at 37° C. for 5 minutes and resuspended in ALDEFLUOR assay buffer containing ALDH substrate (BODIPY-aminoacetaldehyde, 1 μM per 1×10^6 cells). An aliquot of the cells were treated with 7.5 μM of diethylaminobenzaldehyde (DEAB), an inhibitor of ALDH, as the negative control. Samples were incubated in 37° C. with 5% CO2 for 45 minutes and analyzed by FACSCalibur (Becton Dickinson Co., Franklin Lakes, N.J.). The ALDH-positive gate was established using the negative control treated with DEAB.

McNeuA implanted mice = test: In vivo combination therapy on McNeuA implanted FVB mice (Example 2); set-up: species or system mouse; conditions: four-week regimen, weekly Dox with or without daily hPRL injection; for Time to relapse: X, Y are placeholders
Source text: Finally, the efficacy of the treatment is examined in vivo by implanting McNeuA cell into FVB mice. Two weeks after tumor cell inoculation, a four-week treatment regimen is applied (weekly Dox with or without daily hPRL injection). Tumor growth and the time to relapse is monitored and compared among groups.

[3] = test system: MCF-7, SKBR3 and McNeuA breast cancer cell lines; test: Tumorsphere evaluation, all cell lines tested (Example 2); format: cell-based, human and mouse; conditions: 7 and 14 days of treatment
Source text: (§3) Three breast cancer cell lines are used in this assay: two human breast cancer cell lines, MCF-7 (ER^high, HER2^low) and SKBR3 (ER^low, HER2^high), and one mouse breast cancer cell line that was established from HER2/neu transgenic mice (McNeuA). After establishing the dose response curves, all three cell lines will be used for two in vitro studies. The cells will be treated with a standard chemotherapeutic drug, doxorubicin (Dox) alone (Max or IC50) or in combination with hPRL (Max or IC50).
First, the functional response of CSCs is measured by standard colony formation and tumorsphere formation assays after 7- and 14 days of treatment using methods described above in Example 2.

[4] = test system: MCF-7, SKBR3 and McNeuA breast cancer cell lines; test: ALDH testing, cell lines of Example 2; format: cell-based, human and mouse; conditions: Example 2 cell lines; 12, 24 and 48 hours of treatment
Source text: as §3
Next, the CSC population is measured by two sets of the stem cell markers, aldehyde dehydrogenase (ALDH) and CD44^high/CD24^low after a 12-, 24- and 48 hours of treatment using flow cytometry methods as described in Example 2.

[5] = test system: primary mouse breast cancer cells isolated from MMTV-neu transgenic mice; test: Tumorsphere formation assay, MMTV-neu primary cells (Example 1); format: cell-based; conditions: 11 days, hPRL 0.5 μg/ml, ±0.34, p<0.001, data not shown
Description: as §1
MCF-7 and MMTV-neu cells were cultured by standard methods known in the art. Briefly, unsorted MCF-7 cells were plated in ultra-low attachment plate (Corning Inc, Corning, N.Y.) at a density of 5000 cells/ml in serum-free Dulbecco's Modified Eagle Medium—F12 (DMEM-F12) supplemented with 0.4% bovine serum albumin (BSA), 10 ng/mL of basic fibroblast growth factor (bFGF), 20 ng/ml of epidermal growth factor (EGF), 5 μg/ml of insulin (all from Sigma-Aldrich Co., St. Louis, Mo.). Tumorspheres were allowed to form in 37° C. with 5% CO2 for 10 days. Culture medium were replaced two times in the course of treatment. […]
as §2
Tumorsphere formation was determined by spheres formed in the culture medium. Spheres number were counted manually under four random fields of the 24-well at 40× magnification.

Row | Molecule | number of tumorspheres formed / tumorspheres formation [1] | number of ALDH+ cells (ALDH positive cell population) [2] | number of ALDH− cells [2] | Tumor size (McNeuA implanted mice) | Time to relapse (McNeuA implanted mice) | tumorsphere formation (number and size of tumorspheres) [3] | number of ALDH-negative cells [4] | number of ALDH-positive cells [4] | increase of tumorspheres formation [5]
1 | COc1cccc2c1C(=O)c1c(O)c3c(c(O)c1C2=O)C[C@@](O)(C(=O)CO)C[C@@H]3O[C@H]1C[C@H](N)[C@H](O)[C@H](C)O1 [Dox, doxorubicin] | negligible effect | no significant change | decreased | decrease | X days after last treatment | negligible affect | reduced | unaffected | 
2 | B1 | slightly increased |  |  | increase comparable to “no | no remission | negligible affect | negligible affect | negligible affect | 2.3 fold
